Measured values from patent US6274568A, “Compounds for altering cell surface sialic acids and methods of use therefor” (priority 1999, dated 2001).
Entries after “also recorded” stand apart in the source; their conditions may differ.

How the values were obtained:
Jurkat cells [1] = test: Morphology and viability of precursor-treated Jurkat cells; assay type: cell-based, human
NG108-15 cells [2] = test: Uptake of mannosamine precursors and conversion to sialic acids (precursor pool, gangliosides, glycoproteins) in NG108-15 cells, HPLC; assay type: cell-based, mouse neuroblastoma/rat glioma hybrid
Experimental: (§1) Cells were harvested using hypertonic Ca^2+ - and Mg^2+ -free phosphate-buffered saline containing 1 mM EDTA, collected by centrifugation, and homogenized in ice-cold water using a Potter-Elvehjem glass/Teflon homogenizer. Methanol (2.6 volumes) was added, the suspension mixed and brought to ambient temperature, then chloroform (1.3 volumes, based on the original homogenate) was added and the suspension mixed vigorously. The suspension was centrifuged 30 min at 2,000×g. After collecting the supernatant, the pellet (containing precipitated proteins) was resuspended in water or concentrated ammonium hydroxide and a portion was used for protein assay (BCA, Pierce, Rockford, Ill.). The supernatant was partitioned by adjusting the chloroform-methanol-water ratio to 4:8:5.6 by addition of water, mixing thoroughly, and centrifuging as above. The upper phase was collected and a portion was subjected to reverse phase chromatography, using Sep-Pak C18 cartridges (Waters, Milford, Mass.), to isolate gangliosides (Schnaar, Methods Enzymol. 230:371, 1994).
(§2) To quantify and identify sialic acids, a portion of resolublized protein, organic/aqueous soluble pool, or reverse-phase purified gangliosides was evaporated to dryness in a 500-μl polypropylene tube and 20 μl of 0.1 M HCl/0.25 M NaCl was added. One Ampliwax bead (Perkin Elmer Corp, Foster City, Calif.) per reaction was added to block evaporation, and the sample hydrolyzed for 3 h at 80° C. Released sialic acids were analyzed by injecting an aliquot (1-10 μl) onto a Dionex high pressure liquid chromatography system (Dionex Corporation, Sunnyvale, Calif.) using a HPIC-AS6 column and a pulsed amperometric detector. Elution solutions were: A, 0.75 mM NaOH; B, 200 mM NaOH; and C, 400 mM sodium acetate in 50 mM NaOH. NeuAc and NeuPr were resolved by elution with 40% A, 50% B, 10% C for 15 min at 1 ml/min. NeuGc was resolved in separate injections using step gradient elution: 0-1.8 min, 18% A, 50% B, 32% C; 2-10 min, 40% B, 60% C. Sialic acids were identified by comparison of their elution time with those of standard NeuAc, NeuPr and NeuGc and were quantified in comparison to a standard curve of commercial NeuAc (for NeuAc and NeuPr) or NeuGc.
(§3) To confirm that the quantified peaks represented sialic acids, 10 μl of acid hydrolysates were treated with 1 μl of 1 M sodium phosphate (pH 7.2) and 10 μl of 0.1 M NaOH. Neutralized samples were incubated at 37° C. for 2 h with or without 0.9 U of N-acetylneuraminic acid aldolase (Sigma), 32 μM NADH and 0.1 μg lactate dehydrogenase. Sialic acid content in the ganglioside and glycoprotein fractions is expressed per mg of total cell protein. Precursor pool sialic acid (sialic acid plus CMP-sialic acid) was calculated by subtracting the ganglioside value from the organic/aqueous pool value, both expressed per mg of cell protein.
Sialic acid is biosynthesized from the precursor sugar N-acetylmannosamine (FIG. 2). In the present invention, sialic acids are converted on live neuronal cells from NeuAc, which is a key determinant for MAG binding, to NeuGc, which is non-permissive for MAG binding. A potential NeuGc precursor, N-glycolylmannosamine monoacetate (ManNGcMA, FIG. 1, R1 =H) was tested for its ability to generate altered sialic acids in neuronal and non-neuronal cells. N-propanoylmannosamine (ManNPr) and other N-acyl mannosamine derivatives have been used to modify glycoprotein associated sialic acids to the corresponding N-acylneuraminic acid. N-propanoyl-mannosamine (ManNPr), was used as a positive control. […] Cell pellets were fractioned into lipid associated, protein associated, and intracellular (lipid and cytoplasmic which may consist of oligosaccharide-bound, free, or CMP-activated sialic acid) sialic acids and hydrolyzed to release sialic acid. The hydrolyzed samples were then analyzed by HPLC to determine sialic acid content. […]

Jurkat cells [3] = test: Uptake of mannosamine precursors and conversion to sialic acids in Jurkat cells, HPLC; assay type: cell-based, human; details: 20 mM precursor, 48 h
Experimental: as §1, §2, §3
Sialic acid is biosynthesized from the precursor sugar N-acetylmannosamine (FIG. 2). In the present invention, sialic acids are converted on live neuronal cells from NeuAc, which is a key determinant for MAG binding, to NeuGc, which is non-permissive for MAG binding. A potential NeuGc precursor, N-glycolylmannosamine monoacetate (ManNGcMA, FIG. 1, R1 =H) was tested for its ability to generate altered sialic acids in neuronal and non-neuronal cells. N-propanoylmannosamine (ManNPr) and other N-acyl mannosamine derivatives have been used to modify glycoprotein associated sialic acids to the corresponding N-acylneuraminic acid. N-propanoyl-mannosamine (ManNPr), was used as a positive control. Jurkat human lymphoma cells and NG108-15 cells (rodent neuroblastoma/glioma hybrid cells) were incubated in 20 mM synthetic precursor or control precursor (N-acetylmannosamine, ManNAc) for 48 h, then harvested. Cell pellets were fractioned into lipid associated, protein associated, and intracellular (lipid and cytoplasmic which may consist of oligosaccharide-bound, free, or CMP-activated sialic acid) sialic acids and hydrolyzed to release sialic acid. […]

NG108-15 cells [4] = system: NG108-15 cells
Experimental: Cell growth rates were determined in control cultures (.box-solid.), in cultures treated with 0.08 mM (.circle-solid.), 0.25 mM (.smallcircle.), or 1 mM (.quadrature.) ManNGcPA, and in cultures treated with 0.25 mM (.tangle-solidup.) or 1 mM (Δ) glucose pentaacetate.
NG108-15 cells were maintained in Dulbecco's modified Eagle's medium (high glucose formulation) containing 5% iron-enriched calf serum, 100 μM hypoxanthine, 16 μM thymidine, and 5 μM aminopterin. […] Both cell types were cultured at 37° C. in a humidified atmosphere of 90% air/10% CO2. For treatment with sialic acid precursors, mannosamine derivatives were diluted into the appropriate medium and filter sterilized. […] In experiments testing ManNGcPA, all cells (control and experimental) were grown in the presence of 0.5% (v/v) DMSO, the carrier for ManNGcPA.

sialoadhesin = details: cited from earlier work
[5] = system: myelin-associated glycoprotein (MAG); details: cited from earlier work
NG108-15 cells [6] = details: cited from earlier work
[7] = NG108-15, 20 mM precursor, 48 h

## CCC(=O)N[C@@H]1C(O)O[C@H](CO)[C@@H](O)[C@@H]1O (stereo partly shown) [ManNPr, N-Propanoylmannosamine, reference compound]
Jurkat cells [1]
  alteration of cell morphology or viability: did not seem to alter cell morphology or viability significantly
NG108-15 cells [2]
  incorporation into gangliosides and glycoproteins as NeuPr: efficiently incorporated
NG108-15 cells [2]; 20 mM precursor, 48 h
  increase in intracellular sialic acid (precursor pool): 4 fold
  increase in total glycoprotein sialic acid: ≈ 1.4 fold
  sialic acid precursor pool as NeuPr: > 95%
NG108-15 cells [2]; [7]
  ganglioside (lipid associated) sialic acid in the form of NeuPr: 70% and ≈ 70%
  intracellular sialic acid pool as NeuPr: composed predominantly
  levels of intracellular sialic acid: high levels
  size of the ganglioside pool: remained relatively constant
NG108-15 cells [2]; NG108-15, 20 mM precursor, 48 h, listed as N-propanoylmannosamine
  levels of intracellular sialic acid: high levels of intracellular sialic acid similar to that observed with N-acetylmannosamine treatment
Jurkat cells [3]
  glycoprotein associated sialic acid in the form of NeuPr: ≈ 50%
  intracellular sialic acid pool as NeuPr: composed predominantly
  levels of intracellular sialic acid: high levels
  lipid associated sialic acid in the form of NeuPr: 33%
Jurkat cells [3]; listed as N-propanoylmannosamine
  levels of intracellular sialic acid: high levels of intracellular sialic acid similar to that observed with N-acetylmannosamine treatment
NG108-15 cells [4]
  alteration of cell morphology or viability: did not seem to alter cell morphology or viability significantly

## CC(=O)N[C@H]1[C@H]([C@H](O)[C@H](O)CO)OC(O)(C(=O)O)C[C@@H]1O (stereo partly shown) [NeuAc, N-acetylneuraminic acid]
sialoadhesin
  sialoadhesin binding: MAG and sialoadhesin bind NeuAc
[5]
  support of MAG binding / recognition: support MAG binding; also recorded: MAG and sialoadhesin bind NeuAc

B1: MAG: Myelin associated glycoprotein (MAG), a sialic acid binding lectin and member of the siglec family (protein, UniProt P20916 20-626, looked up)
Myelin-associated glycoprotein: GHWGAWMPSSISAFEGTCVSIPCRFDFPDELRPAVVHGVWYFNSPYPKNYPPVVFKSRTQVVHESFQGRSRLLGDLGLRNCTLLLSNVSPELGGKYYFRGDLGGYNQYTFSEHSVLDIVNTPNIVVPPEVVAGTEVEVSCMVPDNCPELRPELSWLGHEGLGEPAVLGRLREDEGTWVQVSLLHFVPTREANGHRLGCQASFPNTTLQFEGYASMDVKYPPVIVEMNSSVEAIEGSHVSLLCGADSNPPPLLTWMRDGTVLREAVAESLLLELEEVTPAEDGVYACLAENAYGQDNRTVGLSVMYAPWKPTVNGTMVAVEGETVSILCSTQSNPDPILTIFKEKQILSTVIYESELQLELPAVSPEDDGEYWCVAENQYGQRATAFNLSVEFAPVLLLESHCAAARDTVQCLCVVKSNPEPSVAFELPSRNVTVNESEREFVYSERSGLVLTSILTLRGQAQAPPRVICTARNLYGAKSLELPFQGAHRLMWAKIGPVGAVVAFAILIAIVCYITQTRRKKNVTESPSFSAGDNPPVLFSSDFRISGAPEKYESERRLGSERRLLGLRGEPPELDLSYSHSDLGKRPTKDSYTLTEELAEYAEIRVK
NG108-15 cells [6]
  neurite outgrowth from NG108-15 cells: inhibited
